{"source": "patent US20260041744A1", "about": "“Methods for Treating Pompe Disease” (Amicus Therapeutics, Inc., priority 2022, published 2026)", "key": {"[1]": {"system": "adult subjects with late-onset Pompe disease (LOPD)", "assay": "Study ATB200-03 (PROPEL): urinary hexose tetrasaccharide (Hex4/Glc4)", "type": "in vivo, human"}, "[2]": {"system": "adult subjects with LOPD", "assay": "Study ATB200-07 (OLE): Hex4", "description": "(§1) The Phase III double-blind PROPEL study (NCT03729362; ATB200-03) described in Examples 9 and 10 above compared the investigational two-component therapy cipaglucosidase alfa/miglustat (cipa/mig) with alglucosidase alfa/placebo (alglu) in adults with late-onset Pompe disease (LOPD) over 52 weeks. The ongoing open-label extension (OLE) of PROPEL (NCT04138277; ATB200-07) evaluates long-term safety and efficacy of cipa/mig. Outcomes include 6 minute walk distance (6MWD), forced vital capacity (FVC), creatine kinase (CK) and hexose tetrasaccharide (Hex4) levels and safety. Data are reported as change from the PROPEL baseline to OLE week 52 (104 weeks after the PROPEL baseline)."}, "[3]": {"system": "Gaa KO mice", "assay": "Muscle biomarkers LAMP1, LC3, dysferlin in Gaa KO mice (staining, western blot)", "type": "in vivo, mouse", "conditions": "mouse, in vivo", "procedure": "The therapeutic effects of ATB200 and miglustat were evaluated and compared against those of Alglucosidase alfa in Gaa KO mice. For the study, male Gaa KO (3-to 4-month old) and age-matched wild-type (WT) mice were used. Alglucosidase alfa was administered via bolus tail vein intravenous (IV) injection. In the co-administration regimen, miglustat was administered via oral gavage (PO) 30 minutes prior to the IV injection of ATB200. Treatment was given biweekly. Treated mice were sacrificed after 14 days from the last administration and various tissues were collected for further analysis. Table 11 summarizes the study design:\nTissue samples were also analyzed for biomarker changes following the methods discussed in: Khanna R, et al. (2012), “The pharmacological chaperone AT2220 increases recombinant human acid α-glucosidase uptake and glycogen reduction in a mouse model of Pompe disease,” Plos One 7(7): e40776; and Khanna, R et al. (2014), “The Pharmacological Chaperone AT2220 Increases the Specific Activity and Lysosomal Delivery of Mutant Acid a-Glucosidase, and Promotes Glycogen Reduction in a Transgenic Mouse Model of Pompe Disease,” PLOS ONE 9(7): e102092.\nSimilarly, intense LC3-positive aggregates in the muscle fibers of untreated Gaa KO mice signify the presence of autophagic zones and autophagy build-up. […] A similar observation was made when the expression of LC3 was assessed using western blot. […] In comparison, the effect of alglucosidase alfa on autophagy was modest.\nDysferlin, a protein involved in membrane repair and whose deficiency/mistrafficking is associated with a number of muscular dystrophies, was also assessed."}, "[4]": {"system": "adult subjects with LOPD", "assay": "Study ATB200-07 (OLE): PROMIS-Fatigue", "type": "in vivo, human", "excerpt": "(§2) Analysis populations presented in this summary are 1) the OLE-ES Population (all subjects who satisfied the eligibility requirements (based on the inclusion and exclusion criteria) and entered Study ATB200-07 and 2) the OLE-FAS Population (all subjects who entered the OLE Study ATB200-07 who had both a valid ATB200-07 baseline and at least 1 post-baseline assessment for at least 1 of the 6 main efficacy endpoints [6MWD, sitting % predicted FVC, MMT-lower extremities, PROMIS-Physical Function, PROMIS-Fatigue, and GSGC])."}, "[5]": {"system": "LOPD population (PROPEL target population)", "assay": "Multi-level network meta-regression (ML-NMR) indirect treatment comparison, 6MWD and FVC change from baseline at week 52", "design": "species or system human", "conditions": "base-case scenario", "procedure": "Using patient-level data from the PROPEL randomized clinical trial (RCT) plus aggregate published data from other RCTs, Phase I/II and open label extension trials, a multi-level network meta-regression was conducted, adjusting for various baseline covariates including previous ERT duration. The base case scenario had covariates resembling the PROPEL population (naïve and ERT-experienced) and analyzed 6MWD and FVC change from baseline at 52 weeks.\nAn ITC providing relative effect estimates in the target population of interest (ie an LOPD population including a mix of ERT-naïve and ERT-experienced subjects as in the pivotal Phase III trial comparing Cipa+mig with Alglu [PROPEL]) was performed.\nA systematic literature review (SLR) was conducted to identify relevant published clinical studies of ERTs in LOPD. Outcomes assessed were change from baseline in 6-minute walking distance (6MWD) (m) and in forced vital capacity (FVC; % predicted) at week 52, acknowledged by clinicians, HTA agencies and payers as key LOPD trial endpoints. Aggregate results on 6MWD and FVC change from baseline over time and baseline characteristics (age, gender, ethnicity, previous ERT duration, baseline 6MWD and baseline FVC) were extracted from included studies.\nA multi-level network meta regression (ML-NMR) was performed, which is an extension of standard network meta-analyses (NMAs) that take into account the effect of study-level covariates, and that can be applied to any connected network with any mixture of individual patient-level data (IPD) and aggregate data. ML-NMR is an accepted method by the National Institute for Health and Care Excellence (NICE) in support of cost effectiveness analysis. Single-arm study results were matched to appropriate comparator arms of the comparative studies to allow for inclusion into the network. Mean treatment differences with associated 95% credible intervals (CrIs) were calculated for 6MWD and FVC change from baseline at week 52.\nA base-case scenario was evaluated in which all covariates were set to the target population of the PROPEL trial. To study the impact of previous ERT duration on relative effects, ERT duration value was varied, keeping remaining covariate values as in the base-case scenario. A sensitivity analysis was performed by excluding all matched single-arm evidence from the network to assess its impact on the results.\nBoth fixed effects (FE) and random effects (RE) ML-NMR models were applied and the deviance information criteria (DIC) was used to assess goodness-of-fit of the models and to identify the appropriate model (FE or RE model) for the data. Models were implemented in a Bayesian framework using Stan with help of the R package multinma.\nIn the base-case scenario, the covariates were set to the baseline characteristics of the target population (ie the PROPEL trial; see Table 20), and time was set to 52 weeks."}, "[6]": {"system": "adult subjects with LOPD", "assay": "Study ATB200-07 (OLE): PROMIS-Physical Function", "type": "in vivo, human", "excerpt": "as §2"}, "[7]": {"system": "adult subjects with Pompe disease", "assay": "Pooled Studies ATB200-02/03/07 (Pool 2): sitting % predicted FVC by exposure interval", "conditions": "exposure interval ≤15 months", "description": "The pooled efficacy analyses presented within this section include the outlier (Pool 2). […] Pooled efficacy analyses excluding the outlier subject (Pool 2A) were also performed.\nNo long-term data for the alglucosidase alfa/placebo group are available, as all subjects switched to cipaglucosidase alfa/miglustat in Study ATB200-07.\nEfficacy data from the 3 adult Pompe disease clinical studies were pooled and analyzed to further support the long-term efficacy of cipaglucosidase alfa/miglustat in adult subjects. Data from non-ambulatory subjects (Study ATB200-02 Cohort 2) were not included in the pool as there was little overlap of efficacy endpoints for this group with the various ambulatory groups, such as 6MWD and lower MMT.\nThe 3 adult Pompe disease clinical studies were pooled as follows: • The cipaglucosidase alfa/miglustat treatment group consists of: • All ambulatory subjects in Study ATB200-02 (Cohorts 1, 3, and 4), • All subjects randomized to the cipaglucosidase alfa/miglustat treatment group in Study ATB200-03, and • All subjects enrolled in Study ATB200-07. • The alglucosidase alfa/placebo treatment group consists of: • All subjects randomized to the ERT treatment group in Study ATB200-03."}, "[8]": {"system": "adult subjects with LOPD", "assay": "Study ATB200-07 (OLE): MMT lower extremity", "excerpt": "as §2"}, "[9]": {"system": "adult subjects with LOPD", "assay": "Study ATB200-07 (OLE): CK", "description": "as §1"}, "[10]": {"system": "adult subjects with LOPD", "assay": "Study ATB200-07 (OLE): GSGC", "type": "in vivo, human", "excerpt": "as §2"}, "[11]": {"conditions": "Study ATB200-03 baseline, OLE-ES Population excluding Subject 4005-2511"}, "[12]": {"conditions": "change from ATB200-03 baseline at Week 52, OLE-ES excluding Subject 4005-2511"}, "[13]": {"conditions": "change from ATB200-03 baseline at Week 104, alglucosidase alfa/placebo group switched to cipaglucosidase alfa/miglustat at Week 52, OLE-ES excluding Subject 4005-2511"}, "[14]": {"conditions": "change from ATB200-03 baseline at Week 52, decrease indicates improvement, OLE-ES excluding Subject 4005-2511"}}}
{"substance": "alglucosidase alfa [reference compound]", "values": [{"measurement": "mean urinary Glc4 concentration at Week 52", "setting": "[1]; ERT-experienced patients (baseline 4.6 and 7.2 mmol/mol)", "result": 9.1, "unit": "mmol/mol"}, {"measurement": "mean change in urine Hex-4 after 52 weeks", "setting": "[1]; combined ERT switch and ERT naïve population", "result": "+11.0%"}, {"measurement": "Hex4, mean BSL", "setting": "[2]; [11]", "result": 7.0}, {"measurement": "Hex4, mean 52-wk CFB", "setting": "[2]; [12]", "result": 1.6}, {"measurement": "Hex4, mean 104-wk CFB", "setting": "[2]; [13]", "result": "−2.7"}, {"measurement": "LC3 II level / autophagy, western blot", "setting": "[3]", "result": "modest"}, {"measurement": "PROMIS-Fatigue, mean BSL", "setting": "[4]; [11]", "result": 21.2}, {"measurement": "PROMIS-Fatigue, mean 52-wk CFB", "setting": "[4]; [14]", "result": "−1.7"}, {"measurement": "PROMIS-Fatigue, mean 104-wk CFB", "setting": "[4]; [13]", "result": "−0.1"}, {"measurement": "relative effect, sensitivity analysis (RCT data only), 6MWT and FVC", "setting": "[5]", "result": "numerically favourable versus placebo"}, {"measurement": "PROMIS-Physical Function, mean BSL", "setting": "[6]; [11]", "result": 67.9}, {"measurement": "PROMIS-Physical Function, mean 52-wk CFB", "setting": "[6]; [12]", "result": 0.3}, {"measurement": "PROMIS-Physical Function, mean 104-wk CFB", "setting": "[6]; [13]", "result": "−0.4"}, {"measurement": "Sitting % Predicted FVC Baseline, Mean", "setting": "[7]; Pool 2, Efficacy Population including the outlier", "result": 70.04, "unit": "% predicted"}, {"measurement": "Sitting % Predicted FVC Baseline, Median", "setting": "[7]; Pool 2, including the outlier", "result": 71.25, "unit": "% predicted"}, {"measurement": "sitting % predicted FVC change from baseline, median", "setting": "[7]; Pool 2, including the outlier", "result": "−3.00", "unit": "% predicted"}, {"measurement": "sitting % predicted FVC change from baseline, mean", "setting": "[7]; last available post-baseline value − baseline, Pool 2, including the outlier", "result": "−3.64", "unit": "% predicted"}, {"measurement": "MMT (lower extremity score), mean BSL", "setting": "[8]; [11]", "result": 27.8}, {"measurement": "MMT (lower extremity score), mean 52-wk CFB", "setting": "[8]; [12]", "result": 0.9}, {"measurement": "MMT (lower extremity score), mean 104-wk CFB", "setting": "[8]; [13]", "result": 1.1}, {"measurement": "CK, mean BSL", "setting": "[9]; [11]", "result": 527.4}, {"measurement": "CK, mean 52-wk CFB", "setting": "[9]; [12]", "result": 41.0}, {"measurement": "CK, mean 104-wk CFB", "setting": "[9]; [13]", "result": "−173.6"}, {"measurement": "GSGC, mean BSL", "setting": "[10]; [11]", "result": 14.3}, {"measurement": "GSGC, mean 52-wk CFB", "setting": "[10]; [14]", "result": 0.9}, {"measurement": "GSGC, mean 104-wk CFB", "setting": "[10]; [13]", "result": 0.3}]}
